Laboratory results taken from the NIST ThermoML archive (doi:10.1016/j.jct.2013.02.017).

Test: molar heat capacity at constant pressure
Conditions: 101.33 kPa, relaxation calorimetry - Quantum Design PPMS

O=P([O-])([O-])[O-].[Fe+3] [iron(III) phosphate]
molar heat capacity at constant pressure [J/K/mol]
Conditions	Crystal 1	Crystal 2
1 K	–	0.003782
1.886 K	–	0.04093
1.997 K	–	0.04782
2.181 K	–	0.0617
2.476 K	–	0.09126
2.736 K	–	0.127
3 K	–	0.18
3.028 K	–	0.1804
3.36 K	–	0.2601
3.752 K	–	0.3807
4 K	–	0.4766
4.187 K	–	0.5478
4.659 K	–	0.7673
4.845 K	–	0.8619
5 K	–	0.9387
5.18 K	–	1.047
5.77 K	–	1.391
6 K	–	1.539
6.414 K	–	1.814
6.798 K	–	2.084
7 K	–	2.22
7.132 K	–	2.309
7.933 K	–	2.865
8 K	–	2.913
8.77 K	–	3.466
8.832 K	–	3.516
9 K	–	3.635
10 K	–	4.367
10.05 K	–	4.403
11 K	–	5.121
11.15 K	–	5.235
12 K	–	5.897
12.38 K	–	6.189
12.94 K	–	6.616
13 K	–	6.67
13.73 K	–	7.26
14 K	–	7.443
14.43 K	–	7.762
14.95 K	–	8.294
15 K	–	8.323
15.43 K	–	8.719
15.94 K	–	9.181
16 K	–	9.243
16.43 K	–	9.674
16.95 K	–	10.23
17 K	–	10.28
17.45 K	–	10.8
17.84 K	–	11.2
18 K	–	11.49
18.13 K	–	11.71
18.45 K	–	12.08
18.82 K	–	12.45
19 K	–	12.58
19.22 K	–	12.73
19.66 K	–	13.2
19.99 K	–	13.49
20 K	–	13.57
20.25 K	–	13.97
20.64 K	–	14.43
20.82 K	–	14.73
21.1 K	–	15.1
21.5 K	–	15.55
21.71 K	–	16.04
21.92 K	–	16.34
22.11 K	–	16.68
22.32 K	–	17.08
22.51 K	–	17.48
22.73 K	–	17.86
22.92 K	–	18.38
23.11 K	–	18.7
23.36 K	–	19.34
23.55 K	–	19.72
23.76 K	–	20.25
23.95 K	–	20.84
24.15 K	–	21.42
24.38 K	–	21.93
24.61 K	–	22.61
24.87 K	–	23.08
25 K	23.11	23.11
25.08 K	23.28	–
25.18 K	22.8	–
25.4 K	21.44	–
25.43 K	20.48	–
25.62 K	18.26	–
25.68 K	17.59	–
25.72 K	17.26	–
25.94 K	15.76	–
25.99 K	15.49	–
26.15 K	14.92	–
26.41 K	14.37	–
26.94 K	13.87	–
27.46 K	13.73	–
27.94 K	13.72	–
28.45 K	13.76	–
28.97 K	13.89	–
29.45 K	14.01	–
29.98 K	14.01	–
30 K	14.02	–
30.99 K	14.13	–
32.01 K	14.38	–
33.01 K	14.68	–
34.02 K	15.04	–
35 K	15.41	–
35.05 K	15.43	–
36.05 K	15.83	–
37.06 K	16.23	–
38.07 K	16.64	–
39.08 K	17.07	–
40 K	17.52	–
40.08 K	17.53	–
41.1 K	17.99	–
42.11 K	18.43	–
43.12 K	18.88	–
44.12 K	19.31	–
45 K	19.76	–
45.14 K	19.79	–
46.14 K	20.26	–
47.17 K	20.76	–
48.16 K	21.23	–
49.19 K	21.7	–
50 K	22.04	–
50.22 K	22.15	–
53.7 K	23.85	–
55 K	24.35	–
59.64 K	26.61	–
60 K	26.66	–
65 K	28.97	–
66.28 K	29.55	–
70 K	31.26	–
73.59 K	32.72	–
75 K	33.49	–
80 K	35.67	–
81.69 K	36.3	–
85 K	37.77	–
90 K	39.9	–
90.72 K	40.16	–
95 K	42.03	–
100 K	44.11	–
100.73 K	44.09	–
110 K	48.06	–
110.86 K	47.98	–
120 K	51.77	–
120.94 K	51.73	–
130 K	55.28	–
131.04 K	55.47	–
140 K	58.62	–
141.13 K	58.97	–
150 K	61.85	–
151.25 K	62.31	–
160 K	64.98	–
161.4 K	65.71	–
170 K	68.05	–
171.44 K	68.87	–
180 K	71.06	–
181.6 K	71.84	–
190 K	74.02	–
191.71 K	74.76	–
200 K	76.93	–
201.83 K	77.69	–
210 K	79.79	–
211.94 K	80.42	–
220 K	82.59	–
222.06 K	83.12	–
230 K	85.33	–
232.15 K	85.84	–
240 K	88	–
242.24 K	88.09	–
250 K	90.6	–
252.28 K	90.69	–
260 K	93.11	–
262.36 K	92.91	–
270 K	95.55	–
272.53 K	95.97	–
273.15 K	96.3	–
280 K	97.9	–
282.61 K	99.14	–
290 K	100.17	–
292.62 K	101.41	–
298.15 K	101.96	–
300 K	102.35	–
302.73 K	102.84	–
